The values that follow come from ChEMBL document CHEMBL1149576, “Convergent synthesis and in vivo inhibitory effect on fat accumulation of (-)-ternatin, a highly N-methylated cyclic peptide” (2007).

Each structure is given as a SMILES string. Active and inactive are the calls of the source. The calls are words filed in the database; no cut-off is given here.

The subject of the experiment is 3T3-L1. The experiment can be described thus: Inhibition of fat accumulation in mouse 3T3L1 adipocytes. The class given is functional, cell-based.

For `CC[C@H](C)[C@H]1NC(=O)[C@@H]([C@H](O)C(C)C)NC(=O)[C@@H](C)N(C)C(=O)[C@H](C)N(C)C(=O)[C@H](CC(C)C)NC(=O)[C@H](CC(C)C)N(C)C(=O)[C@H](C)N(C)C1=O`, the result was Active.
